Data: article PMC6001824, “Expressional and functional interactions of two Apis cerana cerana olfactory receptors” (PeerJ, 2018)
Read-outs that look alike come from different tables or passages of the source.

Experiments:
AcerOr2 [1] = biological target: T1, AcerOr2 (Apis cerana cerana, UniProt G9J1I3); type: cell-based; conditions: odorant at 10^−6 M
AcerOr1 = AcerOr1 (Apis cerana cerana, UniProt G8HAQ8); type: cell-based; conditions: for HillSlope: Sf9 cells expressing AcerOr1, 4-parameter logistic fit; for Emax: Sf9 cells expressing AcerOr1, concentration-response, 4-parameter logistic fit; for response of AcerOr1-expressing cells (increase in intracellular Ca2+): odorant at 10^−6 M; for EC50: Sf9 cells expressing AcerOr1, Ca2+ imaging
Chain of AcerOr1 (G8HAQ8 entry or part of it): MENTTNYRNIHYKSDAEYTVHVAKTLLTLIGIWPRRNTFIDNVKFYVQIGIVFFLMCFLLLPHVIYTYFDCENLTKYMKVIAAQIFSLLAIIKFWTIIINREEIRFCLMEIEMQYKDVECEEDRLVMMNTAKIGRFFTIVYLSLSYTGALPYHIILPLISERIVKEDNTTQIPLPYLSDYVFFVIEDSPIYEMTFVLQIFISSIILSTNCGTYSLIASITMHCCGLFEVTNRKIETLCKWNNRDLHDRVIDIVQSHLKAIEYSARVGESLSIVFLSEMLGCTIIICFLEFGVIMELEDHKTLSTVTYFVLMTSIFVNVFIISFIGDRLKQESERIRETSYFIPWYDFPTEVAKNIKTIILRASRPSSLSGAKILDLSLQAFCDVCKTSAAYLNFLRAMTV
Experimental: (§1) Spodoptera frugiperda Sf9 cells were purchased from the Chinese Academy of Sciences Cell Bank (Beyotime, Shanghai, China) were maintained as an adherent culture in Sf-900 III serum-free medium (SFM; Gibco, Invitrogen, Carlsbad, CA, USA) supplemented with 10% fetal bovine serum (Sijiqing, Hangzhou, China) and 100 μg mL^−1 penicillin-streptomycin at a constant temperature of 28 °C in a humidified incubator (Thermo Scientific, Cornelius, OR, USA) in the absence of CO2 in T-25 tissue culture flasks (Corning Inc., Corning, NY, USA). Sf9 cells were grown to approximately 80–90% confluence as observed under a light microscope. Cells were dislodged from the flask by washing with the media contained in the flask. In total, 1 × 10^6 Sf9 cells were suspended in 2 mL of Sf-900 III SFM in each well of a Nunclone six-well tissue culture plate (Corning Inc., Corning, NY, USA). Confluent cells (80–90%) were transiently transfected with 2.0 μg pIB-AcerOr1/pIB-AcerOr2 using 8 μL of Cellfectin II reagent (Invitrogen, Carlsbad, CA, USA) in six-well plates according to the manufacturer’s instructions. The medium containing plasmid DNA and Cellfectin II was removed after incubation of the cells with a DNA/Cellfectin II mix for 3–5 h. The cells were washed twice with fresh Sf-900 III SFM and overlaid with 2 mL of fresh SFM. […] After incubation for 48 h, assays were performed.
(§2) To identify candidate ligands for selected ORs, we tested 32 compounds (most of which were volatile compounds from host plants, including aldehydes, alcohols, monoterpenes, benzoates, and sesquiterpenes) at a final concentration of 10^−6 M by Ca^2+ imaging in an in vitro cell expression system. […] After the cells were transfected for 48 h, the medium was removed and the cells were washed three times with Hank’s balanced salt solution (without Ca^2+). The cells were subsequently cultured at 37 °C in the dark for 30 min in the presence of 2 μmol L^−1 Fluo-4-AM (Beyotime, Shanghai, China) and were stimulated by the chemical odorants. Each test chemical ligand was applied to Fluo-4-loaded Sf9 cells expressing AcerOr1 at a final concentration of 10^−6 M, and the increase in fluorescence caused by the substrate was measured and expressed as a fraction of the fluorescence elicited by the calcium ionophore ionomycin. The Ca^2+-free solution used was Dulbecco’s phosphate buffered saline supplemented with 0.4 mM ethylene glycol tetra-acetic acid (EGTA).
(§3) EC50 values were determined using GraphPad Prism 6.0 (GraphPad; San Diego, CA, USA). The formula used for calculating the concentration-response using a 4-parameter logistic model was as follows: Y=Bottom+(Top−Bottom)/1+10^(LogEC50−X)^*HillSlope where Y and X are the response showing a sigmoid shape and the logarithm of the concentration.

AcerOr2 [2] = biological target: T1, AcerOr2; type: cell-based; conditions: for EC50: Sf9 cells expressing AcerOr2, Ca2+ imaging
Experimental: as §1, §2, §3

[3] = tested on: endogenous Orco in Sf9 cells; test: Ca2+ imaging of control Sf9 cells transfected with pIB/V5 empty vector; type: cell-based, Spodoptera frugiperda; conditions: odorant at 10^−6 M
[4] = tested on: antennae of Apis cerana cerana; test: Electroantennography (EAG) of isolated antennae; conditions: 500 μg μL^−1 of compound in liquid paraffin, relative to blank
Experimental: The level of OR expression in antenna olfactory neurons can be indirectly measured by recording the EAG responses of the isolated antennae to the corresponding odorant ligand. We compared data previously obtained by Ca^2+ imaging in vitro to determine whether these odorants can cause electrophysiological responses in the antennae with physiological activity. […] The compounds were dissolved and diluted in liquid paraffin to final concentrations of 0.1, 1, 10, 100, and 500 μg μL^−1. Pure liquid paraffin wax was used as a blank, and results were calculated relative to the blank. The antennae were carefully cut at the base and placed into EAG electrode probes (Syntech, Hilversum, The Netherlands) with a drop of Spectra 360 electrode gel (Parker Lab, Inc., Fairfield, NJ, USA). Filter paper strips (5 × 50 mm) were loaded with 20 μL of the different test solutions and inserted into glass Pasteur pipettes and served as sources of stimuli. Humidified airflow was delivered at a constant rate of 700 mL min^−1 by an air stimulus controller CS-55 (Syntech, Kirchzarten, Germany). Odor stimuli were administered three times at 2 mL s^−1 for 0.5 s at 30 s intervals. EAG recordings of antennal responses to each stimulus were documented as voltage waveforms using an IDAC-4 computer-operated amplifier controller (Syntech, Kirchzarten, Germany), and the data were analyzed with the EAGPro software (Syntech, Kirchzarten,Germany). A newly prepared antenna was used for each recording. A dose-response curve was plotted using the EAG recordings (in mV) for each concentration.

T1 sequence (G9J1I3 entry or part of it): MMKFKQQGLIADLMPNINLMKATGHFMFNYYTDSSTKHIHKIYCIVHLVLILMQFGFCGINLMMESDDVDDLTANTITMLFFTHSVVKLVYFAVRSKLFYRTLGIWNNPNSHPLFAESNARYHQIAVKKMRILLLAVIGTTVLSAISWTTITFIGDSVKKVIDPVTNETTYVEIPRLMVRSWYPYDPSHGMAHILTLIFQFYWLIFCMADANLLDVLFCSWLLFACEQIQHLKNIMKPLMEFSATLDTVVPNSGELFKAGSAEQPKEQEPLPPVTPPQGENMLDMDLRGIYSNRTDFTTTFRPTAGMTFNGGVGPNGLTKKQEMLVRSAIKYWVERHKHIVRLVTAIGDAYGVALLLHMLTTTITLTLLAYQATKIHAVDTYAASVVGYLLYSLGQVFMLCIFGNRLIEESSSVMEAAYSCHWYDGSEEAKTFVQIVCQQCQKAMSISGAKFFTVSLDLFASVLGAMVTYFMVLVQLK

CCc1ccc(NC(=O)CSc2nnc(-c3cccnc3)n2CC)cc1 [VUAA1, N-(4-ethylphenyl)-2-((4-ethyl-5-(3-pyridinyl)-4H-1,2,4-triazol-3-yl)thio) acetamide]
response of cells expressing AcerOr2 alone (increase in intracellular Ca2+) (AcerOr2 [1]): greatest increase in intracellular Ca^2+ | HillSlope (AcerOr1): 1.72 ± 1.48 | Emax (AcerOr1): 4.64 ± 0.10 | response of AcerOr1-expressing cells (increase in intracellular Ca2+) (AcerOr1): sensitive | HillSlope (AcerOr2 [2]; Sf9 cells expressing AcerOr2, 4-parameter logistic fit): 0.56 ± 0.08 | EC50 (AcerOr2 [2]; read-out: EC50): 0.0662 µM | Emax (AcerOr2 [2]; Sf9 cells expressing AcerOr2, concentration-response, 4-parameter logistic fit): 241.67 ± 0.74 | response of control cells (pIB/V5 empty vector, endogenous Orco only) [3]: unable to respond | EAG response [4]: 18.71 ± 1.45 mV

CC/C=C\C/C=C\C/C=C\CCCCCCCC(=O)O [Linolenic acid]
HillSlope (AcerOr1): 0.87 ± 0.03 | EC50 (AcerOr1): 10^−7 to 10^−8 M | Emax (AcerOr1): 85.74 ± 0.83 | response of AcerOr1-expressing cells (increase in intracellular Ca2+) (AcerOr1): elicited responses | EC50 (AcerOr2 [2]): > 10 µM | EAG response [4]: 10 ± 0.54 mV

C=CCc1ccc(O)c(OC)c1 [Eugenol]
HillSlope (AcerOr1): 0.74 ± 0.06 | EC50 (AcerOr1): 10^−7 to 10^−8 M | Emax (AcerOr1): 88.53 ± 0.52 | response of AcerOr1-expressing cells (increase in intracellular Ca2+) (AcerOr1): elicited responses | EC50 (AcerOr2 [2]): > 10 µM | EAG response [4]: 9.92 ± 0.58 mV

C=CC(C)=CCC=C(C)C [Ocimene]
HillSlope (AcerOr1): 0.50 ± 0.09 | EC50 (AcerOr1): 10^−7 to 10^−8 M | EC50 (AcerOr1; read-out: EC50): 0.0532 µM | Emax (AcerOr1): 144.27 ± 0.59 | response of AcerOr1-expressing cells (increase in intracellular Ca2+) (AcerOr1): elicited responses | EC50 (AcerOr2 [2]; read-out: EC50): > 10 µM

CCCCCCCCCCC(=O)O [Undecanoic acid]
HillSlope (AcerOr1): 0.73 ± 0.05 | EC50 (AcerOr1): 10^−7 to 10^−8 M | Emax (AcerOr1): 116.69 ± 1.15 | response of AcerOr1-expressing cells (increase in intracellular Ca2+) (AcerOr1): elicited responses | EC50 (AcerOr2 [2]; read-out: EC50): > 10 µM

CCCCCCCCCO [1-Nonanol]
HillSlope (AcerOr1): 0.80 ± 0.06 | EC50 (AcerOr1): 10^−7 to 10^−8 M | Emax (AcerOr1): 69.86 ± 0.44 | response of AcerOr1-expressing cells (increase in intracellular Ca2+) (AcerOr1): elicited responses | EC50 (AcerOr2 [2]; read-out: EC50): > 10 µM

CC(C)=CCC/C(C)=C\CO [Nerol]
HillSlope (AcerOr1): 0.52 ± 0.06 | EC50 (AcerOr1): 10^−7 to 10^−8 M | Emax (AcerOr1): 184.92 ± 0.55 | response of AcerOr1-expressing cells (increase in intracellular Ca2+) (AcerOr1): elicited responses | EC50 (AcerOr2 [2]): > 10 µM

CCCCCCCCO [1-Octyl alcohol]
HillSlope (AcerOr1): 0.63 ± 0.04 | EC50 (AcerOr1): 10^−7 to 10^−8 M | Emax (AcerOr1): 106.77 ± 2.01 | response of AcerOr1-expressing cells (increase in intracellular Ca2+) (AcerOr1): elicited responses | EC50 (AcerOr2 [2]; read-out: EC50): > 10 µM

CCCCCCOC(C)=O [Hexyl acetate]
HillSlope (AcerOr1): 0.73 ± 0.05 | EC50 (AcerOr1): 10^−7 to 10^−8 M | Emax (AcerOr1): 115.94 ± 1.5 | response of AcerOr1-expressing cells (increase in intracellular Ca2+) (AcerOr1): elicited responses | EC50 (AcerOr2 [2]; read-out: EC50): > 10 µM

CCCCCCCCCCCC(=O)O [Lauric acid]
HillSlope (AcerOr1): 0.49 ± 0.06 | EC50 (AcerOr1): 10^−7 to 10^−8 M | EC50 (AcerOr1; read-out: EC50): 0.0481 µM | Emax (AcerOr1): 138.79 ± 0.5 | response of AcerOr1-expressing cells (increase in intracellular Ca2+) (AcerOr1): elicited responses | EC50 (AcerOr2 [2]; read-out: EC50): > 10 µM
